Data set [1] concerns the target T1, hydrogen peroxide generation by Aβ in the presence of copper (Homo sapiens, UniProt P05067).
T1 construct: The reaction solutions contained Aβ 1-42 at concentrations in the range of 50 nM to 1 μM
The data set is described as follows: Fluorometric H2O2 assay (Assay 1). The data set is classed as biochemical. To be noted: DCF/HRP, 37 C 60 min, several values in one cell = repeat determinations. How it is done:
Assay 1. Fluorometric H2O2 Assay
A fluorometric assay was used to test the ability of a test compound to inhibit hydrogen peroxide generation by Aβ in the presence of copper based on dichlorofluoroscein diacetate (DCF; Molecular Probes, Eugene Oreg.). The DCF solution (5 mM) in 100% dimethyl sulphoxide (previously purged with argon for 2 hr at 20° C.) was deacetylated in the presence of 0.25M NaOH for 30 min and neutralised at pH 7.4 to a final concentration of 1 mM. Horseradish peroxidase (HRP) stock solution was prepared to 1 μM at pH 7.4. The reactions were carried out in PBS, pH 7.4 in a 96 well plate (total volume=250 μl/well). The reaction solutions contained Aβ 1-42 at concentrations in the range of 50 nM to 1 μM, copper-glycine chelate (Cu-Gly), was prepared by adding CuCl2 to glycine in the ratio of 1:6 and added to the Aβ in the proportion 2Cu-Gly: 1Aβ), reducing agents including dopamine (5 μM) or ascorbic acid, deacetylated DCF 100 μM, and HRP, 0.1 μM. […] The reaction mixture was incubated at 37 C for 60 min. […] H2O2 concentration may be established by comparing fluorescence with the H2O2 standards. Inhibition of AB H2O2 production was assayed by including a given concentration of test compound(s) in the test wells.

Data set [2] deals with Neuronal cortical cells. The data set is described as follows: Assay for test compound cytoxicity, MTS (Assay 3(d)). The data set is classed as cell-based, mouse. The settings on record: BL6J×129sv, mouse, 4 days, 10 uM. How it is done: Media was then replaced with Neurobasal media (Invitrogen Life Technologies) and B27 supplements (Invitrogen Life Technologies). Cultures were maintained at 37° C. in 5% CO2. Prior to experimentation, the culture medium was replaced with Neurobasal media and B27 minus antioxidants (Invitrogen Life Technologies).
Cell viability is determined using the MTS assay. Culture medium is […] replaced with fresh neurobasal medium plus B27 supplements minus antioxidants. 1/10th volume MTS solution (Cell Titre 96 Aqueous One, Promega Corporation) and incubated at 37° C., 2 hrs. 200 microliter aliquots are measured with a spectrophotometer at 560 nm.
(d) Assay for Test Compound Cytoxicity
Neuronal cortical cells were cultured for five days as per Assay 2 in NB media and B27 supplement.
On day six the test compounds were added to the neuronal cell cultures in NB media and B27 supplement minus antioxidants.
Test compounds were dissolved in 100% DMSO to a concentration of 2.5 mM (10 mM if excess compound was weighed out per vial—then diluted to 2.5 mM). […] Test compounds were not added directly to cells, instead they were added to a 48 well ‘Drug Plate’ as comprised below:
The Drug Plate was incubated at 37° C. for 15 mins. 200 ul of each well was added in triplicate to the corresponding cell plate. The cell plate was incubated at 37 C, for 4 days.
On completion of the assay, 1/10 volume MTS was added per well of plate (ie 25 ul/250 ul). The plates were incubated at 37 C for 2 hrs, and then absorbance was read at 560 nm.

[3] abbreviates: Aβ 1-42 with Cu-Gly, read-out: Peroxide IC50.

The source of these data is patent US9302993B2, “8-hydroxy quinoline derivatives” (PRANA BIOTECHNOLOGY LIMITED, priority 2002, dated 2016).

Where “and” joins values, the source holds several entries; their conditions need not be identical. Equal entries are not always repeated. Where two headings read alike, the source gives them in different places.

T1 sequence (P05067 672-713 limits assumed): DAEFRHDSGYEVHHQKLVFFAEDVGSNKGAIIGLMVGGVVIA

Consider `Oc1cccc2ccc(-n3cccn3)nc12` [compound 964, 2-pyrazol-1-yl-quinolin-8-ol], for which the IC50 in data set [1] (setting [3]) worked out at 7.1 µM.

On to `CC(C)Oc1c(I)cc(Cl)c2cccnc12` [compound 804], for which the IC50 in data set [1] (setting [3]) is over 10 µM. The same measure, in the same setting: the same measure for `O=S(=O)(O)c1ccc2cccc(O)c2n1` [compound 50]: 90 µM; for `CNc1ccc2c(Cl)cc(Cl)c(O)c2n1` [compound 1047, 5,7-Dichloro-2-methylamino-8-hydroxyquinoline]: over 10 µM. Same read-out and setting: the same measure for `Cc1ccccc1-c1cc(Cl)c2c(-c3ccccc3C)ccnc2c1OC(C)C` [compound 805]: over 10 µM. Take `Oc1c(I)cc(-c2ccccc2F)c2cccnc12` [compound 865]: the “Viable 10 uM” value in data set [2] is recorded as 34.07. In addition, the IC50 in data set [1] (setting [3]) was over 10 µM.

As to `CC(=O)Nc1ccc(O)c2ncccc12` [compound 1028], the IC50 in data set [1] (setting [3]) came out at 0.32 µM. Turning to `CC(C)Oc1c(-c2ccc(F)cc2)cc(Cl)c2cccnc12` [compound 802], in data set [1] (setting [3]), the IC50 is over 10 µM. As for `CC(C)Oc1c(-c2cccc(F)c2)cc(Cl)c2cccnc12` [compound 858], the IC50 in data set [1] (setting [3]) is over 10 µM. Consider `Oc1c(-c2cccc(F)c2)cc(Cl)c2cccnc12` [compound 850], for which, in data set [2], the “Viable 10 uM” value is 71.28. Moreover, in data set [1] (setting [3]), the 50% inhibitory concentration (IC50) was over 10 µM. For `Oc1cccc2cc3ccccc3nc12` [compound 1043], the IC50 in data set [1] (setting [3]) worked out at 0.64 µM.

Consider `Oc1c(-c2ccc(F)cc2F)cc(Cl)c2cccnc12` [compound 973], for which the “Viable 10 uM” value in data set [2] was 42.38. Also, the IC50 in data set [1] (setting [3]) is over 10 µM. In the same order, the values of `O=Cc1ccccc1-c1cc(Cl)c2cccnc2c1O` [compound 849] are 98.83 and 4.5 µM. `COc1ccc(-c2cc(Cl)c3cccnc3c2OC(C)C)cc1` [compound 800]: in data set [1] (setting [3]), the IC50 is over 10 µM.

Regarding `Oc1c(-c2ccsc2)cc(Cl)c2cccnc12` [compound 972], the “Viable 10 uM” value in data set [2] is recorded as 30.59. The IC50 in data set [1] (setting [3]) was over 10 µM. For the compound `Oc1cccc2ccc(-n3ccnc3)nc12` [compound 965], in data set [1] (setting [3]), the IC50 was over 10 µM. Same read-out and setting: the same measure for `Cc1ccccc1-c1cc(Cl)c2cccnc2c1OC(C)C` [compound 866]: over 10 µM; for `Cc1nccn1-c1ccc2cccc(O)c2n1` [compound 993]: over 10 µM.

As to `CC(=O)NCc1ccc2cccc(O)c2n1` [compound 967], the “Viable 10 uM” value in data set [2] is given as 90.69. Also, the IC50 in data set [1] (setting [3]) was 7.8 µM. In the same order, the values of `Oc1c(-c2ccccc2)cc(Cl)c2cccnc12` [compound 808] are 71.89 and over 10 µM. In the case of `O=C(O)CNC(=O)c1cc(O)c2cccc(O)c2n1` [compound 992], the IC50 in data set [1] (setting [3]) is over 10 µM. The same measure, in the same setting: the same measure for `CC(C)Oc1c(F)cc(-c2cc(F)cc(F)c2)c2cccnc12` [compound 817]: over 10 µM; for `CC(=O)Oc1ccc(-c2cc(Cl)c3cccnc3c2OC(C)C)s1` [compound 822]: over 10 µM. As to `O=[N+]([O-])c1cccc(-c2cc(Cl)c3cccnc3c2O)c1` [compound 811], in data set [2], the “Viable 10 uM” value amounted to 78.46. Further, the IC50 in data set [1] (setting [3]) is over 10 µM. For the compound `Oc1c(-c2cc3ccccc3s2)cc(Cl)c2cccnc12` [compound 970], in data set [2], the “Viable 10 uM” value is on record as 32.33. In data set [1] (setting [3]), the IC50 was determined as 6.7 µM. As for `Oc1c(-c2cc(F)cc(F)c2)cc(Cl)c2cccnc12` [compound 813], the “Viable 10 uM” value in data set [2] is 66. For the same compound, the IC50 in data set [1] (setting [3]) was over 10 µM.

Regarding `COc1cccc2ccc(C(=O)NCCc3ccccn3)nc12` [compound 1022], the IC50 in data set [1] (setting [3]) was over 10 µM. On to `O=S(=O)(NCCc1c[nH]cn1)c1ccc2cccc(O)c2n1` [compound 1035], for which the IC50 in data set [1] (setting [3]) is over 10 µM. For `O=C(NCc1nccs1)c1ccc2cccc(O)c2n1` [compound 1019], the IC50 in data set [1] (setting [3]) is over 10 µM. The same measure, in the same setting: the same measure for `CC(C)Oc1c(-c2cccc([N+](=O)[O-])c2)cc(Cl)c2cccnc12` [compound 857]: over 10 µM.

For `CC(C)Oc1c(-c2ccccc2C=O)cc(Cl)c2cccnc12` [compound 867], the IC50 in data set [1] (setting [3]) was over 10 µM. On the same count and under the same terms, the same measure for `COc1cccc(-c2cc(Cl)c3cccnc3c2OC(C)C)c1` [compound 801]: over 10 µM. Still for that read-out and setting: the same measure for `OCC1OC(Oc2cccc3cccnc23)[C@H](O)[C@@H](O)[C@H]1O` (some centres unmarked) [compound 62]: over 10 µM; for `c1ccc(COc2cccc3cccnc23)cc1` [compound 855]: over 10 µM. On to `Oc1c(-c2ccc(F)cc2)cc(Cl)c2cccnc12` [compound 812], for which the “Viable 10 uM” value in data set [2] stood at 75.36. Moreover, the IC50 in data set [1] (setting [3]) is over 10 µM. Turning to `Oc1ccc(CCc2ccc3cccc(O)c3n2)cc1` [compound 91], in data set [1] (setting [3]), the IC50 was 50 µM and > 10 µM. Regarding `CC(C)Oc1c(I)cc(-c2ccccc2F)c2cccnc12` [compound 856], the IC50 in data set [1] (setting [3]) is over 10 µM.

With `CC(C)Oc1c(-c2ccccc2)cc(Cl)c2cccnc12` [compound 818], in data set [1] (setting [3]), the half-maximal inhibitory concentration (IC50) is over 10 µM. `COc1ccccc1-c1cc(-c2ccccc2OC)c2cccnc2c1OC(C)C` [compound 824]: in data set [1] (setting [3]), the IC50 is over 10 µM. Take `COc1ccccc1-c1cc(Cl)c2cccnc2c1OC(C)C` [compound 819]: the IC50 in data set [1] (setting [3]) was over 10 µM.

With `Oc1c(-c2cc(Cl)c3cccnc3c2O)cc(Cl)c2cccnc12` [compound 971], the “Viable 10 uM” value in data set [2] is listed as 84.29. Also, in data set [1] (setting [3]), the IC50 is over 10 µM. For `CC(C)Oc1c(I)cc(-c2ccc(C(F)(F)F)cc2)c2cccnc12` [compound 823], the IC50 in data set [1] (setting [3]) is over 10 µM. On the same count and under the same terms, the same measure for `CC(C)Oc1c(-c2cc(F)cc(F)c2)cc(Cl)c2cccnc12` [compound 820]: over 10 µM. Take `COc1ccc(-c2cc(Cl)c3cccnc3c2O)cc1` [compound 814]: the “Viable 10 uM” value in data set [2] is given as 31.13. As for `CC(C)Oc1c(-c2ccc(N(C)C)cc2)cc(Cl)c2cccnc12` [compound 868], the IC50 in data set [1] (setting [3]) was over 10 µM. On the same count and under the same terms, the same measure for `O=C(O)c1ccc2cccc(O)c2n1` [compound 57]: 40 µM; for `COc1ccccc1-c1cc(I)c(OC(C)C)c2ncccc12` [compound 825]: over 10 µM. As to `O=C(O)c1cc(O)c2cccc(O)c2n1` [compound 52], the IC50 in data set [1] (Peroxide IC50, Aβ 1-42 with Cu-Gly) is over 100 µM. With `Oc1ccc(F)c2cccnc12` [compound 1034], in data set [1] (setting [3]), the IC50 worked out at 0.44 µM.

Take `CC(C)Oc1c(-c2ccccc2F)cc(Cl)c2cccnc12` [compound 803]: the IC50 in data set [1] (setting [3]) was over 10 µM. Turning to `Brc1ccc(OCc2ccccc2)c2ncccc12` [compound 821], the IC50 in data set [1] (setting [3]) was over 10 µM.

With `O=C(O)C1OC(Oc2cccc3cccnc23)[C@H](O)[C@@H](O)[C@H]1O` (some centres unmarked) [compound 39], the half-maximal inhibitory concentration (IC50) in data set [1] (setting [3]) amounted to 90 µM.

For the compound `O=C(O)CNC(=O)c1ccc2cccc(O)c2n1` [compound 956], the “Viable 10 uM” value in data set [2] came out at 89. The concentration for half-maximal inhibition (IC50) in data set [1] (setting [3]) is over 10 µM. Take `Oc1c(-c2ccccc2F)cc(Cl)c2cccnc12` [compound 815]: the “Viable 10 uM” value in data set [2] stood at 53.68. In addition, the IC50 in data set [1] (setting [3]) was over 10 µM.

`CC(C)Oc1c(F)cc(-c2ccccc2)c2cccnc12` [compound 816]: the IC50 in data set [1] (setting [3]) is over 10 µM. The same measure, in the same setting: the same measure for `Nc1cnc2c(O)c(Cl)cc(Cl)c2c1` [compound 1060, 3-amino-5,7-dichloro-8-hydroxyquinoline]: 0.5 µM; for `CCOC(=O)c1ccccc1-c1ccc2cccc(O)c2n1` [compound 1004]: > 10 µM and 6.6 µM. Take `Cc1ccccc1-c1cc(I)c(OC(C)C)c2ncccc12` [compound 826]: the IC50 in data set [1] (setting [3]) is over 10 µM. Same read-out and setting: the same measure for `CC(C)Oc1c(I)cc(I)c2cccnc12` [compound 807]: over 10 µM; for `CC(C)Oc1c(-c2ccccc2C(F)(F)F)cc(Cl)c2cccnc12` [compound 827]: over 10 µM.

As a reminder, the IC50 is the concentration at which inhibition is half-maximal.
